ChEMBL document CHEMBL1201862, “PubChem BioAssay data set” (2004)
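A five-concentration, 48-hour dose response in 96-well plates underlies each endpoint, interpolated linearly between surrounding concentrations. GI50 = concentration required for 50% inhibition of growth.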 Active and inactive are the calls of the source. Cut-off read from the data, not from the text of the source: active = GI50 up to about 1.1 µM and inactive = higher.

Legend:
Assay in all cases: NCI anticancer screen, dose series, 48 h
OVCAR-5 = system: OVCAR-5
SR = system: SR
MOLT-4 = system: MOLT-4
DU-145 = system: DU-145
SK-MEL-2 = system: SK-MEL-2
COLO 205 = system: COLO 205
HL-60 = system: HL-60
OVCAR-4 = system: OVCAR-4
HOP-92 = system: HOP-92
K562 = system: K562
NCI-H23 = system: NCI-H23
HCT-15 = system: HCT-15
HCT-116 = system: HCT-116
OVCAR-3 = system: OVCAR-3
U-251 = system: U-251
HT-29 = system: HT-29
MDA-MB-435 = system: MDA-MB-435
MDA-N = system: MDA-N
SN12C = system: SN12C

SMILES	GI50 (OVCAR-5)	GI50 (SR)	GI50 (MOLT-4)	GI50 (DU-145)	GI50 (SK-MEL-2)	GI50 (COLO 205)	GI50 (HL-60)	GI50 (OVCAR-4)	GI50 (HOP-92)	GI50 (K562)	GI50 (NCI-H23)	GI50 (HCT-15) [µM]	GI50 (HCT-116)	GI50 (OVCAR-3)	GI50 (U-251)	GI50 (HT-29)	GI50 (MDA-MB-435)	GI50 (MDA-N)	GI50 (SN12C)
N/N=C1N=C(Cl)/C(=C/c2ccco2)N\1	> 100 µM (inactive)	25.8 µM (inactive)	11.9 µM (inactive)	50.4 µM (inactive)	36.2 µM (inactive)	43.1 µM (inactive)	21.9 µM (inactive)	31.6 µM (inactive)	47.2 µM (inactive)	14.8 µM (inactive)	54.8 µM (inactive)	31.5	36.5 µM (inactive)	28.7 µM (inactive)	47.9 µM (inactive)	34.9 µM (inactive)	40.6 µM (inactive)	47.8 µM (inactive)	67.1 µM (inactive)
COC(=O)C1=NN2c3ccccc3C(=O)OCCC2C1 (stereo not given)	> 100 µM (inactive)	> 100 µM (inactive)	> 100 µM (inactive)	> 100 µM (inactive)	> 100 µM (inactive)	> 100 µM (inactive)	> 100 µM (inactive)	> 100 µM (inactive)	46.5 µM (inactive)	> 100 µM (inactive)	> 100 µM (inactive)	> 100	> 100 µM (inactive)	> 100 µM (inactive)	> 100 µM (inactive)	> 100 µM (inactive)	> 100 µM (inactive)	> 100 µM (inactive)	> 100 µM (inactive)
CC(C)NC(=O)CN1CCN(C2=CC(=O)c3c(O)ccc(O)c3C2=O)CC1	18.7 µM (inactive)	1.57 µM (inactive)	17 µM (inactive)	16.1 µM (inactive)	16.6 µM (inactive)	3 µM (inactive)	2.59 µM (inactive)	7.45 µM (inactive)	21.9 µM (inactive)	20.6 µM (inactive)	9.4 µM (inactive)	8.75	2.96 µM (inactive)	2.58 µM (inactive)	19.9 µM (inactive)	3.62 µM (inactive)	1.93 µM (inactive)	2.79 µM (inactive)	14.5 µM (inactive)
COc1ccc2nc3cc(Cl)ccc3c(Nc3ccc(O)c(CN4CCN(C)CC4)c3)c2c1	2.41 µM (inactive)	0.676 µM (active)	1.93 µM (inactive)	1.9 µM (inactive)	1.81 µM (inactive)	1.63 µM (inactive)	1.95 µM (inactive)	1.65 µM (inactive)	1.72 µM (inactive)	1.59 µM (inactive)	1.89 µM (inactive)	2.31	1.75 µM (inactive)	1.92 µM (inactive)	1.67 µM (inactive)	1.67 µM (inactive)	1.62 µM (inactive)	1.67 µM (inactive)	1.85 µM (inactive)
O=C1C=C(C2=C(C3=CC(=O)c4ccccc4C3=O)C(=O)c3ccccc3C2=O)C(=O)c2ccccc21	11.8 µM (inactive)	31.1 µM (inactive)	0.389 µM (active)	5.18 µM (inactive)	17.2 µM (inactive)	3.94 µM (inactive)	1.21 µM (inactive)	6.03 µM (inactive)	2.45 µM (inactive)	2.67 µM (inactive)	7.43 µM (inactive)	9.89	4.84 µM (inactive)	2.84 µM (inactive)	4.48 µM (inactive)	3.12 µM (inactive)	2.47 µM (inactive)	2.25 µM (inactive)	7.26 µM (inactive)
CC(=O)Nc1cc(Cl)cc(Cl)c1O	> 100 µM (inactive)	> 100 µM (inactive)	> 100 µM (inactive)	> 100 µM (inactive)	> 100 µM (inactive)	> 100 µM (inactive)	> 100 µM (inactive)	> 100 µM (inactive)	> 100 µM (inactive)	> 100 µM (inactive)	> 100 µM (inactive)	> 100	> 100 µM (inactive)	> 100 µM (inactive)	> 100 µM (inactive)	> 100 µM (inactive)	> 100 µM (inactive)	> 100 µM (inactive)	> 100 µM (inactive)
C[N+]12CCCCC1C(CN1C(=O)c3ccccc3C1=O)CCC2 (stereo not given)	> 100 µM (inactive)	56 µM (inactive)	> 100 µM (inactive)	> 100 µM (inactive)	> 100 µM (inactive)	> 100 µM (inactive)	> 100 µM (inactive)	> 100 µM (inactive)	> 100 µM (inactive)	> 100 µM (inactive)	> 100 µM (inactive)	> 100	> 100 µM (inactive)	> 100 µM (inactive)	> 100 µM (inactive)	> 100 µM (inactive)	> 100 µM (inactive)	> 100 µM (inactive)	> 100 µM (inactive)
c1ccc(CN2CCC3(CC2)SSC2(CCN(Cc4ccccc4)CC2)S3)cc1	85.3 µM (inactive)	28.8 µM (inactive)	> 100 µM (inactive)	> 100 µM (inactive)	76.7 µM (inactive)	17 µM (inactive)	78 µM (inactive)	52.4 µM (inactive)	> 100 µM (inactive)	71.6 µM (inactive)	30.1 µM (inactive)	38.8	50.8 µM (inactive)	76.4 µM (inactive)	> 100 µM (inactive)	17.6 µM (inactive)	31.3 µM (inactive)	44.7 µM (inactive)	87.1 µM (inactive)
CCCCCCCCCCC/C=C(/C(=O)CCCO[Si](C)(C)C(C)(C)C)C(=O)OC	> 100 µM (inactive)	> 100 µM (inactive)	> 100 µM (inactive)	> 100 µM (inactive)	> 100 µM (inactive)	> 100 µM (inactive)	> 100 µM (inactive)	> 100 µM (inactive)	> 100 µM (inactive)	> 100 µM (inactive)	> 100 µM (inactive)	> 100	> 100 µM (inactive)	> 100 µM (inactive)	> 100 µM (inactive)	> 100 µM (inactive)	> 100 µM (inactive)	> 100 µM (inactive)	> 100 µM (inactive)
COC(=O)[C@@H]1CCc2nc3ccccc3c(=O)n21	> 100 µM (inactive)	> 100 µM (inactive)	> 100 µM (inactive)	> 100 µM (inactive)	> 100 µM (inactive)	> 100 µM (inactive)	> 100 µM (inactive)	> 100 µM (inactive)	> 100 µM (inactive)	> 100 µM (inactive)	> 100 µM (inactive)	> 100	> 100 µM (inactive)	> 100 µM (inactive)	> 100 µM (inactive)	> 100 µM (inactive)	> 100 µM (inactive)	> 100 µM (inactive)	> 100 µM (inactive)
O=C(OCc1ccccc1)C1(N2CN(C3(C(=O)OCc4ccccc4)CCCC3)CN(C3(C(=O)OCc4ccccc4)CCCC3)C2)CCCC1	> 10 µM (inactive)	> 10 µM (inactive)	> 10 µM (inactive)	> 10 µM (inactive)	> 10 µM (inactive)	> 10 µM (inactive)	> 10 µM (inactive)	> 10 µM (inactive)	> 10 µM (inactive)	> 10 µM (inactive)	> 10 µM (inactive)	> 10	> 10 µM (inactive)	> 10 µM (inactive)	> 10 µM (inactive)	> 10 µM (inactive)	> 10 µM (inactive)	> 10 µM (inactive)	> 10 µM (inactive)
N=C(N)SCc1ccc2c(c1)Sc1ccccc1O2	11.6 µM (inactive)	5.78 µM (inactive)	7.71 µM (inactive)	8.69 µM (inactive)	5.12 µM (inactive)	2.36 µM (inactive)	4.57 µM (inactive)	6.87 µM (inactive)	6.31 µM (inactive)	6.03 µM (inactive)	6.5 µM (inactive)	3.33	5.86 µM (inactive)	4.69 µM (inactive)	18.4 µM (inactive)	2.9 µM (inactive)	3.78 µM (inactive)	3.93 µM (inactive)	8.95 µM (inactive)
c1ccc(NNN2NC(c3ccccc3)C2c2ccccc2)cc1 (stereo not given)	> 100 µM (inactive)	> 100 µM (inactive)	55 µM (inactive)	> 100 µM (inactive)	> 100 µM (inactive)	> 100 µM (inactive)	49.5 µM (inactive)	86.1 µM (inactive)	> 100 µM (inactive)	91.8 µM (inactive)	92.3 µM (inactive)	> 100	79.4 µM (inactive)	> 100 µM (inactive)	> 100 µM (inactive)	> 100 µM (inactive)	> 100 µM (inactive)	> 100 µM (inactive)	> 100 µM (inactive)
NC(C(=O)O)c1cc(O)no1 (stereo not given)	> 100 µM (inactive)	> 100 µM (inactive)	> 100 µM (inactive)	> 100 µM (inactive)	> 100 µM (inactive)	> 100 µM (inactive)	> 60 µM (inactive)	> 100 µM (inactive)	> 100 µM (inactive)	> 100 µM (inactive)	> 100 µM (inactive)	> 100	> 100 µM (inactive)	> 100 µM (inactive)	> 100 µM (inactive)	> 100 µM (inactive)	> 100 µM (inactive)	> 100 µM (inactive)	> 100 µM (inactive)
CN(C)CCNc1ccc([N+](=O)[O-])c2sc3ccccc3c(=O)c12	3.03 µM (inactive)	1.56 µM (inactive)	0.706 µM (active)	5.07 µM (inactive)	14.1 µM (inactive)	2.86 µM (inactive)	2.66 µM (inactive)	3.1 µM (inactive)	3.84 µM (inactive)	4.43 µM (inactive)	4.16 µM (inactive)	3.67	2.47 µM (inactive)	3.68 µM (inactive)	3.48 µM (inactive)	2.57 µM (inactive)	5.19 µM (inactive)	4.92 µM (inactive)	4.46 µM (inactive)
